Experiment [1] has as its system Candida albicans, ATTC number 10231. Put plainly: microbe, parasite or virus in culture. To be noted: read-out: zone of inhibition against the yeast, Candida albicans.
Protocol: Candida albicans, ATTC number 10231, was used as a test organism. Cultures of C. albicans were grown in a rotator overnight at room temperature in tubes of LB-broth. The cultures contained approximately 1×10^8 organisms per mL. The suspension was diluted 1:1000 in LB-broth and 50 microliters were spread on the surface of a LB-agar plate, i.e., approximately 5,000 organisms.
Experiment [2] deals with Lactobacilli. Conditions: 60 mg hydrogen borate in well, LB-agar, overnight; Lactobacilli added one hour or 12 hours after hydrogen borate. On the procedure:
Lactobacillus capsular material (40 mg) was suspended in 1.0 milliliter of LB-broth and 25 microliters was spread on the surface of half of an LB-agar plate. For comparison, the other half of the plate spread with C. albicans. A hole was punched in the middle of the plate and 60 mg of hydrogen borate was added. The plates were incubated overnight and scored for growth and/or a zone of inhibition around the hydrogen borate well.
In some cases, only about a quarter of the LB-agar plate was spread with the L-capsular suspension in which case only 10 microliters was used.

In experiment [3] the test system is co-cultures of C. albicans and Lactobacilli. Conditions: Lactobacilli added dropwise immediately after C. albicans was spread onto the plate. From the text: In some cases, the C. albicans was co-cultured with the Lactobacilli. For this inoculum, equal volumes of the two suspensions of organisms described earlier were mixed and used to spread on LB-agar plates for testing for any effect of the co-culture on the anti-yeast activity of hydrogen borate or any effect on Lactobacillus growth.

On to `OB(O)O` [hydrogen borate], for which the zone of inhibition at 60000 µg/disc in experiment [1] was found to be 45 mm. Also, in experiment [2], the “effect on the growth of Lactobacilli” value was “did not have an effect”. In addition, the “effect of co-culture on the anti-yeast activity of hydrogen borate” value in experiment [3] is listed as “did not affect the activity”.

Usually zone of inhibition stands for the extent of the growth-free halo in a diffusion test.

The values are drawn from patent US12011469B2, “Parenteral delivery device and methods of use” (Vireo Systems, Inc., priority 2017, dated 2024).
